US9695155B2, “Herbicidal substituted pyrimidinyloxy benzene compounds” (E. I. DU PONT DE NEMOURS AND COMPANY, priority 2013, dated 2017)

Experiments:
ducksalad = test: Test C flooded paddy test; assay type: in vivo, Heteranthera limosa; conditions: Flood, scale 0 to 100 (0 no effect, 100 complete control), 13 to 15 days
How it was run: (§1)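 In-water treatment: compound dosed into 3 cm flood over soil, water level unchanged throughout. Controls run alongside; visual assessment at day 13–15.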

dayflower = test: Test E preemergence; assay type: in vivo, Commelina virginica; conditions: for Dayflower, VA plant response rating: scale 0 to 100 (0 no effect, 100 complete control); for Plant response rating, Dayflower, VA: scale 0 to 100, 0 no effect, 100 complete control
How it was run: (§2)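 Test chemicals formulated in a non-phytotoxic solvent mixture containing a surfactant were applied preemergence to seeds in silt loam soil or postemergence to plants at the 1- to 4-leaf stage in potting mix. After 14 to 21 days in a greenhouse, injury was visually rated against controls on a 0-100 scale (0 = no effect, 100 = complete control).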

lambsquarters = test: Test D preemergence; assay type: in vivo, Chenopodium album; conditions: Chenopodium album, pre-emergence, scale 0-100, read-out: Plant response rating, Lambsquarters
How it was run: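 Species were sown in silt loam for preemergence treatment, or grown in peat-based medium to the 1–4-leaf stage (2–18 cm) for postemergence sprays. Test chemicals were formulated in a non-phytotoxic solvent mixture with surfactant. After 7–21 days in a controlled environment, plants were rated visually against controls on a 0 (no effect) to 100 (complete control) scale.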

barnyardgrass = test: Test C flooded paddy test; assay type: in vivo, Echinochloa crus-galli; conditions: Flood, scale 0 to 100 (0 no effect, 100 complete control), 13 to 15 days
How it was run: as §1

wild poinsettia = test: Test E preemergence; assay type: in vivo, Euphorbia heterophylla; conditions: for Poinsettia, Wild plant response rating: scale 0 to 100 (0 no effect, 100 complete control); for Plant response rating, Poinsettia, Wild: scale 0 to 100, 0 no effect, 100 complete control
How it was run: as §2

green foxtail = test: Test E preemergence; assay type: in vivo, Setaria viridis; conditions: for Foxtail, Green plant response rating: scale 0 to 100 (0 no effect, 100 complete control); for Plant response rating, Foxtail, Green: scale 0 to 100, 0 no effect, 100 complete control
How it was run: as §2

Structure (SMILES): N#Cc1cccc(Oc2ncc(Br)cn2)c1-n1cc(C(F)(F)F)cn1 [Compound 59, 3-[(5-bromo-2-pyrimidinyl)oxy]-2-[4-(trifluoromethyl)-1H-pyrazol-1-yl]benzonitrile]
- Plant response rating, Ducksalad (ducksalad; 31 g ai/ha): 50
- Plant response rating, Ducksalad (ducksalad; 62 g ai/ha): 75
- Plant response rating, Ducksalad (ducksalad; 125 g ai/ha): 95
- Plant response rating, Ducksalad (ducksalad; 250 g ai/ha): 95
- Dayflower, VA plant response rating (dayflower; 16 g ai/ha): 0
- Dayflower, VA plant response rating (dayflower; 31 g ai/ha): 5
- Dayflower, VA plant response rating (dayflower; 62 g ai/ha): 25
- Plant response rating, Dayflower, VA (dayflower; 125 g ai/ha): 85
- Plant response rating, Dayflower, VA (dayflower; 250 g ai/ha): 98
- pest or weed control at 31 g/ha (lambsquarters; 31 g ai/ha): 95%
- pest or weed control at 62 g/ha (lambsquarters; 62 g ai/ha): 100%
- pest or weed control at 125 g/ha (lambsquarters; 125 g ai/ha): 95%
- pest or weed control at 250 g/ha (lambsquarters; 250 g ai/ha): 100%
- Plant response rating, Barnyardgrass (barnyardgrass; 31 g ai/ha): 0
- Plant response rating, Barnyardgrass (barnyardgrass; 62 g ai/ha): 0
- Plant response rating, Barnyardgrass (barnyardgrass; 125 g ai/ha): 30
- Plant response rating, Barnyardgrass (barnyardgrass; 250 g ai/ha): 40
- Poinsettia, Wild plant response rating (wild poinsettia; 16 g ai/ha): 0
- Poinsettia, Wild plant response rating (wild poinsettia; 31 g ai/ha): 0
- Poinsettia, Wild plant response rating (wild poinsettia; 62 g ai/ha): 10
- Plant response rating, Poinsettia, Wild (wild poinsettia; 125 g ai/ha): 20
- Plant response rating, Poinsettia, Wild (wild poinsettia; 250 g ai/ha): 100
- Foxtail, Green plant response rating (green foxtail; 16 g ai/ha): 0
- Foxtail, Green plant response rating (green foxtail; 31 g ai/ha): 60
- Foxtail, Green plant response rating (green foxtail; 62 g ai/ha): 100
- Plant response rating, Foxtail, Green (green foxtail; 125 g ai/ha): 100
- Plant response rating, Foxtail, Green (green foxtail; 250 g ai/ha): 100
